Measured values published in US20260216140A1, “USE OF ERGOTHIONEINE IN PREPARATION OF PRODUCT FOR PREVENTING OR INHIBITING CELL DAMAGE CAUSED BY ACETALDEHYDE” (BLOOMAGE BIOTECHNOLOGY CORPORATION LIMITED, priority 2022, published 2026).
Where a name gives a salt, the structure may show the parent alone.

Experiments:
Type in all cases: cell-based
[1] = test system: CA9-22 cells; test: MTT cell activity of CA9-22 cells co-cultured with acetaldehyde (cell damage dose finding); details: for Cell activity: 1 day, MTT, T/NT vs untreated = 100%
Experimental: • Experimental materials: acetaldehyde, DMEM medium. • Experimental sample solutions: 17.7 M acetaldehyde was diluted with DMEM medium to prepare experimental sample solutions with different final concentrations, and the concentrations are shown in Table 2. • Methods: After CA9-22 cells were co-cultured with different experimental sample solutions for 1 day, the experimental sample solutions were removed and MTT was added. After 3 hours, the supernatant was carefully aspirated and dimethyl sulfoxide (DMSO) was added. The absorbance of each well at 550 nm was detected by a microplate reader. The untreated well was used as control, the absorbance of the sample well was defined as T, the absorbance of the untreated well was defined as NT, NT was taken as 100%, and the ratio of T/NT of the sample well was taken as the cell activity.

[2] = test system: CA9-22 cells; test: MTT cell activity of CA9-22 cells co-cultured with acetaldehyde plus ergothioneine (inhibition of acetaldehyde cell damage); details: for Cell activity: 1 day, MTT
Excerpt: • Experimental materials: acetaldehyde, ergothioneine and DMEM medium. • Experimental sample solutions: ergothioneine powder and 17.7M acetaldehyde were respectively diluted with DMEM medium, and then the two solutions were mixed in different ratios to prepare experimental sample solutions with different final concentrations, and the concentrations are shown in Table 3. • Methods: After CA9-22 cells were co-cultured with different experimental sample solutions for 1 day, the experimental sample solutions were removed and MTT was added. After 3 hours, the supernatant was carefully aspirated and dimethyl sulfoxide (DMSO) was added. The absorbance of each well at 550 nm was detected by a microplate reader. The untreated wells was used as control, the absorbance of the sample wells was defined as T, the absorbance of the untreated well was defined as NT, NT was taken as 100%, and the ratio of T/NT of the sample well was taken as the cell activity. On the basis of meeting the requirements of significant difference, the greater the cell activity %, the better the effect of inhibiting cell damage caused by acetaldehyde.

[3] = test system: CA9-22 cells; test: MTT cell activity of CA9-22 cells co-cultured with ergothioneine alone (cytotoxicity); details: for Cell activity: 1 day, MTT, T/NT vs untreated = 100%
Experimental: • Experimental materials: ergothioneine, DMEM medium. • Experimental sample solutions: ergothioneine powder was dissolved in DMEM medium to prepare experimental sample solutions with different final concentrations, and the concentrations are shown in Table 1. • Methods: CA9-22 cells purchased from ATCC were co-cultured with different experimental sample solutions for 1 day, then the experimental sample solutions were removed and MTT was added. After 3 hours, the supernatant was carefully aspirated and dimethyl sulfoxide (DMSO) was added. The absorbance of each well at 550 nm was detected by a microplate reader. The untreated well was used as control, the absorbance of the sample well was defined as T, the absorbance of the untreated well was defined as NT, NT was taken as 100%, and the ratio of T/NT of the sample well was taken as the cell activity.

SMILES	Cell activity ([1]; acetaldehyde 0.0001M) [%]	Cell activity ([1]; acetaldehyde 0.001M) [%]	Cell activity ([1]; acetaldehyde 0.005M) [%]	Cell activity ([1]; acetaldehyde 0.01M) [%]	Cell activity ([1]; acetaldehyde 0.02M) [%]	Cell damage after treating cells ([1]; different concentrations of acetaldehyde, more obvious with increasing concentration)	Cell activity ([2]; acetaldehyde 0.02 M alone, no ergothioneine (sample 2)) [%]	Cell activity ([2]; acetaldehyde 0.02 M alone, no ergothioneine (sample 2), listed as acetaldehyde) [%]	Cytotoxicity ([3]; 0.1-12.5 μM, test conditions of Example 1)	Cell activity ([3]; ergothioneine 0.1 μM) [%]	Cell activity ([3]; ergothioneine 0.5 μM) [%]	Cell activity ([3]; ergothioneine 2.5 μM) [%]	Cell activity ([3]; ergothioneine 12.5 μM) [%]	Cell activity ([2]; acetaldehyde 0.02 M + ergothioneine 0.01 μM (sample 3)) [%]	Cell activity ([2]; acetaldehyde 0.02 M + ergothioneine 0.05 μM (sample 4)) [%]	Cell activity ([2]; acetaldehyde 0.02 M + ergothioneine 0.1 μM (sample 5)) [%]	Cell activity ([2]; acetaldehyde 0.02 M + ergothioneine 0.5 μM (sample 6)) [%]	Cell activity ([2]; acetaldehyde 0.02 M + ergothioneine 2.5 μM (sample 7)) [%]	Cell activity ([2]; acetaldehyde 0.02 M + ergothioneine 12.5 μM (sample 8)) [%]	Effect on cell damage caused by acetaldehyde ([2]; acetaldehyde 0.02 M, ergothioneine added)
CC=O [Acetaldehyde, acetaldehyde]	96	93	93	89	70	will cause cell damage	70	70												
C[N+](C)(C)[C@@H](Cc1c[nH]c(=S)[nH]1)C(=O)[O-] [Ergothioneine, 2-mercaptohistidine trimethyl internal salt]									no cytotoxicity	101	100	107	106	71	76	81	83	83	85	can reduce the cell damage caused by acetaldehyde
